Data from the supplement of paper PMC10307832.

Experiments:
Assay in all cases: relative viability (nuclei count vs DMSO), 5 days (fraction); higher = more cells survive
[1] = compound: CS(=O)(=O)CCNCc1ccc(-c2ccc3ncnc(Nc4ccc(OCc5cccc(F)c5)c(Cl)c4)c3c2)o1 [Lapatinib] + O=C(CCCCCCC(=O)Nc1ccccc1)NO [Vorinostat] (partner 1 µM)
Summary of the method: (§1)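 One day after seeding in 1536-well plates, lung cancer cell lines were dosed by pin tool. Dosing was either single-drug or a fixed anchor-drug dose plus five library-drug doses (not always all listed) in √10 steps. After 5 days, nuclei were stained in one fix-and-stain step and counted on 4× images, and relative viability is the nuclei count of treated wells over that of vehicle wells, given as the median of duplicate plates.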

[2] = compound: CC1=NC=CC(=C1)C2=CC=C(C=C2)CC(=O)NC3=CC=C(C=C3)C4=CN=CC=C4 [Wnt-C59] + Cc1cc(Nc2cc(N3CCN(C)CC3)nc(Sc3ccc(NC(=O)C4CC4)cc3)n2)n[nH]1 [Tozasertib] (partner 0.1 µM)
Summary of the method: as §1

[3] = compound: CC1=NC=CC(=C1)C2=CC=C(C=C2)CC(=O)NC3=CC=C(C=C3)C4=CN=CC=C4 [Wnt-C59] + CC(=O)c1c(C)c2cnc(Nc3ccc(N4CCNCC4)cn3)nc2n(C2CCCC2)c1=O [Palbociclib] (partner 0.5 µM)
Summary of the method: as §1

[4] = compound: CS(=O)(=O)CCNCc1ccc(-c2ccc3ncnc(Nc4ccc(OCc5cccc(F)c5)c(Cl)c4)c3c2)o1 [Lapatinib] + Nc1nc2[nH]cc(CCc3ccc(C(=O)N[C@@H](CCC(=O)O)C(=O)O)cc3)c2c(=O)[nH]1 [Pemetrexed] (partner 0.2 µM)
Summary of the method: as §1

Row | Cell Line | relative viability ([1]; first compound 0.02 µM) | relative viability ([1]; first compound 0.06325 µM) | relative viability ([1]; first compound 0.2 µM) | relative viability ([1]; first compound 0.6325 µM) | relative viability ([1]; first compound 2 µM) | relative viability ([2]; first compound 0.001 µM) | relative viability ([2]; first compound 0.01 µM) | relative viability ([2]; first compound 0.03162 µM) | relative viability ([2]; first compound 0.1 µM) | relative viability ([3]; first compound 0.001 µM) | relative viability ([3]; first compound 0.01 µM) | relative viability ([3]; first compound 0.03162 µM) | relative viability ([3]; first compound 0.1 µM) | relative viability ([4]; first compound 0.02 µM) | relative viability ([4]; first compound 0.06325 µM) | relative viability ([4]; first compound 0.2 µM) | relative viability ([4]; first compound 0.6325 µM) | relative viability ([4]; first compound 2 µM)
1 | SK-MES-1 | 0.967 | 0.98 | 1.15 | 1.18 | 0.369 | 0.94 | 0.913 | 0.944 | 0.824 | 0.29 | 0.321 | 0.316 | 0.339 | 0.824 | 0.93 | 0.943 | 0.997 | 0.405
2 | COR-L23 | 0.422 | 0.522 | 0.558 | 0.553 | 0.393 | 0.202 | 0.237 | 0.233 | 0.19 | 0.347 | 0.279 | 0.321 | 0.264 | 0.214 | 0.189 | 0.2 | 0.204 | 0.203
3 | NCI-H1355 | 0.574 | 0.541 | 0.568 | 0.61 | 0.395 | 0.599 | 0.581 | 0.564 | 0.558 | 0.408 | 0.375 | 0.408 | 0.375 | 0.833 | 0.93 | 0.948 | 1.06 | 0.889
4 | NCI-H441 | 0.713 | – | 0.84 | 0.757 | 0.887 | 0.691 | 0.646 | 0.691 | 0.566 | 0.265 | 0.206 | 0.247 | 0.237 | 0.305 | – | 0.248 | 0.231 | 0.248
5 | NCI-H322M | 0.947 | 0.749 | 0.786 | 0.92 | 0.683 | 0.444 | 0.432 | 0.454 | 0.427 | 0.465 | 0.495 | 0.427 | 0.447 | 0.648 | 0.54 | 0.571 | 0.575 | 0.49
6 | NCI-H1993 | 0.45 | – | 0.721 | 0.672 | 0.509 | 0.607 | – | 0.515 | 0.633 | 0.694 | 0.648 | 0.663 | 0.602 | 0.595 | – | 0.578 | 0.607 | 0.543
7 | LOU-NH91 | 0.398 | 0.675 | 0.856 | 0.824 | 0.769 | 0.775 | 0.597 | 0.695 | 0.682 | 0.512 | 0.573 | 0.564 | 0.513 | 0.377 | 0.41 | 0.39 | 0.415 | 0.458
8 | 201T | 0.48 | 0.78 | 0.89 | 0.938 | 0.854 | 0.96 | 0.923 | 1.05 | 0.952 | 0.347 | 0.352 | 0.359 | 0.358 | 0.377 | 0.288 | 0.298 | 0.359 | 0.326
9 | LXF-289 | 0.474 | 0.709 | 0.83 | 0.664 | 0.673 | 0.22 | 0.221 | 0.182 | 0.194 | 0.624 | 0.551 | 0.602 | 0.606 | 0.891 | 0.901 | 0.884 | 0.844 | 0.768
